Measured values taken from ChEMBL document CHEMBL4507278 (2021).

Legend:
[1] = target: Serine/threonine-protein kinase RIO1 (Homo sapiens) (UniProt Q9BRS2); conditions: Compound concentration 1000.0 nM
[2] = target: Serine/threonine-protein kinase DCLK3 (Homo sapiens) (UniProt Q9C098); conditions: Compound concentration 1000.0 nM
[3] = target: Homeodomain-interacting protein kinase 3 (Homo sapiens) (UniProt Q9H422); conditions: Compound concentration 1000.0 nM
[4] = target: Tyrosine-protein kinase Fyn (Homo sapiens) (UniProt P06241); conditions: Compound concentration 1000.0 nM
[5] = system: Receptor-type tyrosine-protein kinase FLT3 (Homo sapiens), P36888 [UNDEFINED MUTATION]; conditions: Compound concentration 1000.0 nM
[6] = target: Atypical kinase COQ8A, mitochondrial (Homo sapiens) (UniProt Q8NI60); conditions: Compound concentration 1000.0 nM
Sequence of Atypical kinase COQ8A, mitochondrial (Homo sapiens) (Q8NI60 163-647 limits assumed): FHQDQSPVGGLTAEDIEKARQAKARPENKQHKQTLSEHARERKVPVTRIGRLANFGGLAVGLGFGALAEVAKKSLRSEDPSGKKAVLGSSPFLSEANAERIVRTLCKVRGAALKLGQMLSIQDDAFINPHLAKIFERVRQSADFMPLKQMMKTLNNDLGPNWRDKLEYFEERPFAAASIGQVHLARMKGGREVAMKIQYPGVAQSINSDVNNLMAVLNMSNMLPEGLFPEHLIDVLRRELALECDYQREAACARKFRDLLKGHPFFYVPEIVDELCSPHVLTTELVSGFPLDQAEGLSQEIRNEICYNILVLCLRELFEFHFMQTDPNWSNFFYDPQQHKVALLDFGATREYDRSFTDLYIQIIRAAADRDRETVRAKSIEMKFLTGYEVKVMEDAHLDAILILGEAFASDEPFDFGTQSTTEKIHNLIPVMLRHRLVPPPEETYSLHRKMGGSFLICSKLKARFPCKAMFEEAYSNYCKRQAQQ

[7] = target: Phosphatidylinositol 4-phosphate 3-kinase C2 domain-containing subunit beta (Homo sapiens) (UniProt O00750); conditions: Compound concentration 1000.0 nM
[8] = target: Tyrosine-protein kinase JAK1 (Homo sapiens) (UniProt P23458); conditions: Compound concentration 1000.0 nM
[9] = target: BMP-2-inducible protein kinase (Homo sapiens) (UniProt Q9NSY1); conditions: Compound concentration 1000.0 nM
[10] = target: Testis-specific serine/threonine-protein kinase 3 (Homo sapiens) (UniProt Q96PN8); conditions: Compound concentration 1000.0 nM
Sequence of Testis-specific serine/threonine-protein kinase 3 (Homo sapiens) (Q96PN8 whole entry): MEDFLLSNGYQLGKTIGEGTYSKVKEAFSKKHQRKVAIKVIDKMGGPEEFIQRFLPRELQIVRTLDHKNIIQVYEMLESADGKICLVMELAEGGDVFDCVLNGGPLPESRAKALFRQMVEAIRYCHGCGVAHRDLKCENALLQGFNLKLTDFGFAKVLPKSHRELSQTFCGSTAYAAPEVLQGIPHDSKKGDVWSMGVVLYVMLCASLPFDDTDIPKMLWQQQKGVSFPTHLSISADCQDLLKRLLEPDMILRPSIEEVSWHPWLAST

[11] = target: Dual specificity mitogen-activated protein kinase kinase 7 (Homo sapiens) (UniProt O14733); conditions: Compound concentration 1000.0 nM
[12] = target: STE20/SPS1-related proline-alanine-rich protein kinase (Homo sapiens) (UniProt Q9UEW8); conditions: Compound concentration 1000.0 nM
[13] = target: Interleukin-1 receptor-associated kinase 3 (Homo sapiens) (UniProt Q9Y616); conditions: Compound concentration 1000.0 nM
[14] = target: SNF-related serine/threonine-protein kinase (Homo sapiens) (UniProt Q9NRH2); conditions: Compound concentration 1000.0 nM
[15] = target: T1, 5-hydroxytryptamine receptor 1A (Homo sapiens) (UniProt P08908); conditions: Compound concentration 10.0 uM
T1 sequence (whole entry): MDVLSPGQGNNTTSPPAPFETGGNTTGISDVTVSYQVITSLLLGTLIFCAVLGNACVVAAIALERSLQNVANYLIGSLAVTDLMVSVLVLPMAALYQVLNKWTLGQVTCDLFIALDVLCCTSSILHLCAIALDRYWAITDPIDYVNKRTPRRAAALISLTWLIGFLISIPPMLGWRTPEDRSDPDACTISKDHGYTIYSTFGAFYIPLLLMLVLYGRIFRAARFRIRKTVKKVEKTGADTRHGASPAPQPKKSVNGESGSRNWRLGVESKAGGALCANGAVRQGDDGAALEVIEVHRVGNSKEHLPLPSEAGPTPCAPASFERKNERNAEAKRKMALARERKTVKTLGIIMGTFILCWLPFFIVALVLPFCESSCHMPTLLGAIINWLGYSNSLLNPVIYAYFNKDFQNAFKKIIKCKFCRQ

[16] = target: Serine/threonine-protein kinase 33 (Homo sapiens) (UniProt Q9BYT3); conditions: Compound concentration 1000.0 nM
[17] = target: Calcium/calmodulin-dependent protein kinase type 1D (Homo sapiens) (UniProt Q8IU85); conditions: Compound concentration 1000.0 nM
[18] = target: Beta-3 adrenergic receptor (Homo sapiens) (UniProt P13945); conditions: Compound concentration 10.0 uM
[19] = target: SRSF protein kinase 3 (Homo sapiens) (UniProt Q9UPE1); conditions: Compound concentration 1000.0 nM
[20] = target: Serine/threonine-protein kinase PAK 4 (Homo sapiens) (UniProt O96013); conditions: Compound concentration 1000.0 nM
[21] = target: Megakaryocyte-associated tyrosine-protein kinase (Homo sapiens) (UniProt P42679); conditions: Compound concentration 1000.0 nM
[22] = target: Phosphatidylinositol 4-kinase beta (Homo sapiens) (UniProt Q9UBF8); conditions: Compound concentration 1000.0 nM
[23] = target: Rho-associated protein kinase 2 (Homo sapiens) (UniProt O75116); conditions: Compound concentration 1000.0 nM
Sequence of Rho-associated protein kinase 2 (Homo sapiens) (O75116 whole entry, looked up): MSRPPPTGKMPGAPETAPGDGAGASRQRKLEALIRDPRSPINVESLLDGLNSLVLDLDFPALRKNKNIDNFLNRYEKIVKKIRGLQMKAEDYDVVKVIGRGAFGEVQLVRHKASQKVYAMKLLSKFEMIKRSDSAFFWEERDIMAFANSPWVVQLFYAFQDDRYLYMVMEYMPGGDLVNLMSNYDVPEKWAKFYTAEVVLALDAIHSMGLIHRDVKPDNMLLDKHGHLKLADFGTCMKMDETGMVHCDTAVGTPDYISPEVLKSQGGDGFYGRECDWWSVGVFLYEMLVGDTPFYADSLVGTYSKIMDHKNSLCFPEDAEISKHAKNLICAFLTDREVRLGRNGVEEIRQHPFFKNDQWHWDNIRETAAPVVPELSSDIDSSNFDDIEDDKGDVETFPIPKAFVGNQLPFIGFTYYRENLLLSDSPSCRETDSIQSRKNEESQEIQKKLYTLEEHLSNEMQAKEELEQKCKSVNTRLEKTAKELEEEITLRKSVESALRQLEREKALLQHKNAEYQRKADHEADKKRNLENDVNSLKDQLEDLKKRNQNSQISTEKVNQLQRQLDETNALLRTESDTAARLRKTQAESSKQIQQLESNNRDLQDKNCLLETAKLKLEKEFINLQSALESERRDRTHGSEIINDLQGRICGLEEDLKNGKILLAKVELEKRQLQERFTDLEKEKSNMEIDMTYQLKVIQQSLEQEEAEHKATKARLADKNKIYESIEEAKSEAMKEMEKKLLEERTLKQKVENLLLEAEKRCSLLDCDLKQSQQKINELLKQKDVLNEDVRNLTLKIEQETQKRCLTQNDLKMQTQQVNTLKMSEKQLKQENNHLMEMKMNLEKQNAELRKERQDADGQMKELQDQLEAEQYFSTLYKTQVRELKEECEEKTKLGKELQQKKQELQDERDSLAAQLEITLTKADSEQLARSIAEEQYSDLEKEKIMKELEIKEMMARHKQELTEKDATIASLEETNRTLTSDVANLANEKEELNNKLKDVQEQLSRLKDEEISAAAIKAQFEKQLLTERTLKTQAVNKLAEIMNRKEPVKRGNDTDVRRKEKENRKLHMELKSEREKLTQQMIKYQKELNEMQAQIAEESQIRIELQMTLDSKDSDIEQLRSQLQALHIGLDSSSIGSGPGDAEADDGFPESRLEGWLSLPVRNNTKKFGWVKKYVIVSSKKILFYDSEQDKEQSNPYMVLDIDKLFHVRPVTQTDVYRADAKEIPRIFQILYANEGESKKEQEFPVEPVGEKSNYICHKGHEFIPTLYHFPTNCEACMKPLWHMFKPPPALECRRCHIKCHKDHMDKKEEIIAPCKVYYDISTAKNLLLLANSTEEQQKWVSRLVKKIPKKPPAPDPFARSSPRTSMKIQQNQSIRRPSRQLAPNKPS

[24] = target: Interferon-induced, double-stranded RNA-activated protein kinase (Homo sapiens) (UniProt P19525); conditions: Compound concentration 1000.0 nM
[25] = target: Serine/threonine-protein kinase NIM1 (Homo sapiens) (UniProt Q8IY84); conditions: Compound concentration 1000.0 nM
[26] = target: Citron Rho-interacting kinase (Homo sapiens) (UniProt O14578); conditions: Compound concentration 1000.0 nM
[27] = target: Calcium/calmodulin-dependent protein kinase type 1 (Homo sapiens) (UniProt Q14012); conditions: Compound concentration 1000.0 nM
Sequence of Calcium/calmodulin-dependent protein kinase type 1 (Homo sapiens) (Q14012 whole entry, looked up): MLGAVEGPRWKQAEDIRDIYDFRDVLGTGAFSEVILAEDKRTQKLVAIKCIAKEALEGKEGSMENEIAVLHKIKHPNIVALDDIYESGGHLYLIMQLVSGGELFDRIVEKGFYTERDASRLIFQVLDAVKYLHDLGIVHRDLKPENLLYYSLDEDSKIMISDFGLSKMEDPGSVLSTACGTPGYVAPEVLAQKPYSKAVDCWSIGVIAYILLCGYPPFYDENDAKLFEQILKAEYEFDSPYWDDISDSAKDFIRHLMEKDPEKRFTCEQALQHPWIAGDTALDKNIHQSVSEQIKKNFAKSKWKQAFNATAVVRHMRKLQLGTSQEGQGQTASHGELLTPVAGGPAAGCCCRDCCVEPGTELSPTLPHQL

[28] = target: Serine/threonine-protein kinase TAO2 (Homo sapiens) (UniProt Q9UL54); conditions: Compound concentration 1000.0 nM
Sequence of Serine/threonine-protein kinase TAO2 (Homo sapiens) (Q9UL54 whole entry): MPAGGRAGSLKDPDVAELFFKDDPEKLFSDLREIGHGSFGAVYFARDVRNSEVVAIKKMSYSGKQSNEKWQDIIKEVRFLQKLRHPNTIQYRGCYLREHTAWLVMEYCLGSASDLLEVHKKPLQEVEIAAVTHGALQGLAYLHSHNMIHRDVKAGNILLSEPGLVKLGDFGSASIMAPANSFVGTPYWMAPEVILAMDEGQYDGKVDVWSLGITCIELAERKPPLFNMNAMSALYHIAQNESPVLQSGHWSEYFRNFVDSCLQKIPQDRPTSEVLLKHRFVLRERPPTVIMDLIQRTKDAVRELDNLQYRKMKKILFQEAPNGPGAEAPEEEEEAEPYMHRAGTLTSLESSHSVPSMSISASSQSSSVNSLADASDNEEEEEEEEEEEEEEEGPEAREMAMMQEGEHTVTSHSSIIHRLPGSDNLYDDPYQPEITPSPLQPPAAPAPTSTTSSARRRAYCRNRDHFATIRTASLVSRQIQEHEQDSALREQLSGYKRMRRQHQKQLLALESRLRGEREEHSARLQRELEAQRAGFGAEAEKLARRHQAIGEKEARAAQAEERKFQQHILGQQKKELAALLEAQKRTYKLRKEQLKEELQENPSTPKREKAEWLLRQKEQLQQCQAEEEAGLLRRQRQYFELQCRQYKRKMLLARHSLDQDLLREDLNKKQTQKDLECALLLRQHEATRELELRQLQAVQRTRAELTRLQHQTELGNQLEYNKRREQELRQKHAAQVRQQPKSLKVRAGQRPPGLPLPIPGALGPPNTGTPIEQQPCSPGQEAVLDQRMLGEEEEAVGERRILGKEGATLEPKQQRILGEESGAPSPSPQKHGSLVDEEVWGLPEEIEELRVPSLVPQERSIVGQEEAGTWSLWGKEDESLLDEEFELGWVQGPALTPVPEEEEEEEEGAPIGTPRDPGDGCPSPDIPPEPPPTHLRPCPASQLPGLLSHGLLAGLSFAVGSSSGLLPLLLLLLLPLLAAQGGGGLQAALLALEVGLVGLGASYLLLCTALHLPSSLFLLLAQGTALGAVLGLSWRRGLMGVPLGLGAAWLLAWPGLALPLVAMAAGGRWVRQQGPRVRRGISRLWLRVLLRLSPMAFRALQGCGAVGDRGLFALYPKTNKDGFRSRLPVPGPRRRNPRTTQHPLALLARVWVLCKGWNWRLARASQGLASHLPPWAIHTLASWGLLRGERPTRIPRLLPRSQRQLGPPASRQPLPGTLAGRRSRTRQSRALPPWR

[29] = target: Serine/threonine-protein kinase PLK1 (Homo sapiens) (UniProt P53350); conditions: Compound concentration 1000.0 nM
[30] = target: Phosphatidylinositol 4,5-bisphosphate 3-kinase catalytic subunit delta isoform (Homo sapiens) (UniProt O00329); conditions: Compound concentration 1000.0 nM
[31] = target: 5-hydroxytryptamine receptor 1E (Homo sapiens) (UniProt P28566); conditions: Compound concentration 10.0 uM
[32] = target: Mitogen-activated protein kinase kinase kinase 1 (Homo sapiens) (UniProt Q13233); conditions: Compound concentration 1000.0 nM
[33] = target: Serine/threonine-protein kinase MARK1 (Homo sapiens) (UniProt Q9P0L2); conditions: Compound concentration 1000.0 nM
[34] = target: Myotonin-protein kinase (Homo sapiens) (UniProt Q09013); conditions: Compound concentration 1000.0 nM
Sequence of Myotonin-protein kinase (Homo sapiens) (Q09013 whole entry): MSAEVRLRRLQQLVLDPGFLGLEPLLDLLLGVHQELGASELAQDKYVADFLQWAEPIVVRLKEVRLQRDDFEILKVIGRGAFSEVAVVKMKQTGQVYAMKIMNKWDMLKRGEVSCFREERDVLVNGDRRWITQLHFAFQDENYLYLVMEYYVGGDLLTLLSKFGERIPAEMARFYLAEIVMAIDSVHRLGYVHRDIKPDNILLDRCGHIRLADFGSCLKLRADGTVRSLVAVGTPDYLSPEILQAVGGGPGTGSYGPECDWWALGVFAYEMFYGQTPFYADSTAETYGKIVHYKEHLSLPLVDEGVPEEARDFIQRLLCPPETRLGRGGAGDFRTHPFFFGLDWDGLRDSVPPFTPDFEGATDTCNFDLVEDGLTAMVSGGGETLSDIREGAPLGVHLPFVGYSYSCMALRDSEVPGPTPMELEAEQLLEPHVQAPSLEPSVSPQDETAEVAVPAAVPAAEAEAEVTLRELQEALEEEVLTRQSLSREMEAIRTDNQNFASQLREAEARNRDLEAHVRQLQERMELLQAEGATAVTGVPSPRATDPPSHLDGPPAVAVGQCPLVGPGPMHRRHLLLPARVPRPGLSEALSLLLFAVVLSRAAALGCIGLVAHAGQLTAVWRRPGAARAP

[35] = system: Epidermal growth factor receptor (Homo sapiens), P00533 [UNDEFINED MUTATION]; conditions: Compound concentration 1000.0 nM
[36] = target: Mitogen-activated protein kinase kinase kinase 14 (Homo sapiens) (UniProt Q99558); conditions: Compound concentration 1000.0 nM
[37] = system: Tyrosine-protein kinase ABL1 (Homo sapiens), P00519 [E255K]; conditions: Compound concentration 1000.0 nM
[38] = target: 5-hydroxytryptamine receptor 2B (Homo sapiens) (UniProt P41595); conditions: Compound concentration 10.0 uM
[39] = target: Serine/threonine-protein kinase MRCK alpha (Homo sapiens) (UniProt Q5VT25); conditions: Compound concentration 1000.0 nM

Sequence of Serine/threonine-protein kinase DCLK3 (Homo sapiens) (Q9C098 whole entry): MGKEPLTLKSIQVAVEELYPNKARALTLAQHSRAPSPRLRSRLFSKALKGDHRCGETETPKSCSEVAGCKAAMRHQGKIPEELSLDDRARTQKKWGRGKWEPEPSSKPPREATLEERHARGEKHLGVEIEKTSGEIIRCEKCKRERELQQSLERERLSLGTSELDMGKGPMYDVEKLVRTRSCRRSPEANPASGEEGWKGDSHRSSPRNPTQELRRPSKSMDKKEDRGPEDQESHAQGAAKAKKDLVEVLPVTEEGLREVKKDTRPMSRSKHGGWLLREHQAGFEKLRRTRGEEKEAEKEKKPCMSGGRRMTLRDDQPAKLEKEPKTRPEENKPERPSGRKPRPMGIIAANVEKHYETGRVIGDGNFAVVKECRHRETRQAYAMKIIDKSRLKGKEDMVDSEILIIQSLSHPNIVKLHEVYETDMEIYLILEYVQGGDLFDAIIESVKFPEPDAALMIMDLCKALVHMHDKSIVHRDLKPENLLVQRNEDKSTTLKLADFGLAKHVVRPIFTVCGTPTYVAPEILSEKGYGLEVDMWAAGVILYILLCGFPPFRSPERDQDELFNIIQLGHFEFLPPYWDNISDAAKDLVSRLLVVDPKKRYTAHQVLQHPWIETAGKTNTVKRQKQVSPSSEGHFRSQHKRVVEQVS

CS(=O)(=O)NCC[C@H](NC(=O)c1cncc2c1cnn2-c1ccc(F)cc1)c1ccnc(S(C)(=O)=O)c1 [BI 9307]
inactive: residual activity [1] 85% | residual activity [2] 93% | residual activity [3] 100% | residual activity [4] 100% | residual activity [5] 100% | residual activity [6] 95% | residual activity [7] 78% | residual activity [8] 100% | residual activity [9] 92% | residual activity [10] 100% | residual activity [11] 100% | residual activity [12] 80% | residual activity [13] 89% | residual activity [14] 100% | inhibition [15] 13.3% | residual activity [16] 87% | residual activity [17] 98% | inhibition [18] -5.01% | residual activity [19] 100% | residual activity [20] 100% | residual activity [21] 100% | residual activity [22] 100% | residual activity [23] 100% | residual activity [24] 53% | residual activity [25] 100% | residual activity [26] 73% | residual activity [27] 94% | residual activity [28] 85% | residual activity [29] 100% | residual activity [30] 100% | inhibition [31] 8.79% | residual activity [32] 100% | residual activity [33] 92% | residual activity [34] 100% | residual activity [35] 71% | residual activity [36] 100% | residual activity [37] 93% | inhibition [38] -5.9% | residual activity [39] 100%

CS(=O)(=O)c1cc(C2(NC(=O)c3cncc4c3cnn4-c3ccc(F)cc3)CC2)ccn1 [BI 639667]
inactive: residual activity [1] 80% | residual activity [2] 100% | residual activity [3] 85% | residual activity [4] 55% | residual activity [5] 70% | residual activity [6] 100% | residual activity [7] 84% | residual activity [8] 83% | residual activity [9] 89% | residual activity [10] 100% | residual activity [11] 91% | residual activity [12] 58% | residual activity [13] 59% | residual activity [14] 88% | inhibition [15] -9.71% | residual activity [16] 90% | residual activity [17] 90% | inhibition [18] -5.91% | residual activity [19] 100% | residual activity [20] 100% | residual activity [21] 100% | residual activity [22] 96% | residual activity [23] 75% | residual activity [24] 60% | residual activity [25] 56% | residual activity [26] 100% | residual activity [27] 65% | residual activity [28] 97% | residual activity [29] 90% | residual activity [30] 100% | inhibition [31] 14.8% | residual activity [32] 100% | residual activity [33] 100% | residual activity [34] 99% | residual activity [35] 66% | residual activity [36] 61% | residual activity [37] 100% | inhibition [38] 22.1% | residual activity [39] 100%
